Series [1] relates to CD4+CD25− T cells. Kind of series: [3H]thymidine proliferation assay of CD4+CD25− T cells. The class given is cell-based, mouse. The protocol: Proliferation assays. T cell-depleted splenocytes (Tds) were obtained by negative selection with murine anti-CD4 and anti-CD8 microbeads (Miltenyi Biotec). Isolated CD4^+CD25^− T cells (5×10^4/well) were cultured in 96-well plates (Costar) with irradiated Tds (5×10^4/well) (2600 rad) in the presence or absence of soluble anti-CD3 mAb (0.7 μg/ml) (R&D Systems, Minneapolis, Minn.). DP (100 μM), IBMX (300 μM) or vehicle control (0.1% DMSO in media) were added at 0 hours. After 48 hours, 2 μCi per well of [^3H]thymidine (NEN, Waltham, Mass.) was added and cells were harvested 16 hours later using a semiautomated cell harvester and [^3H]thymidine incorporation determined by scintillation counting. Cell viability in suppression assays was determined using trypan blue (2.5%) at 64 hours of incubation.
In FIG. 22, purified CREM/ICER^+/+ or CREM/ICER^−/− derived CD4^+CD25^−T cells (5×10^4/well) were cocultured with irradiated T cell depleted splenocytes (5×10^4 well) presenting soluble anti-CD3 mAb (0.75 μg/ml) and the cultures were incubated with IBMX (300 μM), DP (100 μM), or vehicle (media) for 64 hours with [3H]thymidine added for the final 16 hours. The extent of proliferation was determined by [3H]thymidine incorporation at 64 hours and the data are presented as the mean cpm+SEM of an experiment run in triplicate. The results are representative of 2 independent experiments. […] (*p<0.05, **p<0.001; comparisons to vehicle were analyzed using a one way ANOVA followed by Bonferroni t-test and using an unpaired t-test for comparisons between DP and IBMX).

The test system of series [2] is Con A-stimulated mouse splenocytes. As to the kind of experiment: transwell chemotaxis assay in response to CXCL12, Con A-stimulated splenocytes. Format: cell-based. The note with it: Mus musculus, Splenocyte, 4 h; read-out: inhibition of CXCL12-induced migration. The protocol: (§1) Isolation of murine splenocytes. Splenocytes were isolated from 6-8 week old C57BL/6 mice obtained from Jackson Laboratories (Bar Harbor, Me.). Spleens were removed and a single-cell suspension prepared using 40 μm cell strainers (Fisher Scientific). Cells were washed with RPMI 1640 medium supplemented with 5% fetal bovine serum, 2 mM L-glutamine, 100 U/ml penicillin and […] (all from GIBCO). Red blood cells were lysed using standard lysis buffer (0.15M NH4Cl, 10mM KHCO3, 0.1 mM EDTA PH 7.4). Cells were then washed and used in chemotaxis assays either as unstimulated cells or after stimulation with Con A ([…]) as indicated.
(§2) Preparation of Test Reagents. […] This concentration of DMSO had no effect on migration of splenocytes in the presence or absence of CXCL12. CXCL12 was prepared as a 100 μg/ml stock solution in PBS+0.1% BSA, Con A was prepared as a stock of 2.5 mg/ml in PBS, and dibutyryl cAMP and Rp-cAMPS were prepared as 50 mM stock solutions in water, and these reagents were diluted directly into the chemotaxis assays.
(§3) Chemotaxis Assay. Chemotaxis assays were done in 24-well transwell plates with a pore size of 5 μm (Costar, Corning). Splenocytes were placed in medium at a concentration of 3×10^6 cells/ml. Where test agents were used, splenocytes were pretreated with the agent or vehicle for 45 to 60 min, following which 100 μl of the splenocyte suspension was placed into the upper chamber of transwell plates, and the lower chamber was filled with 600 μl of medium. When added to induce migration, CXCL12 (250 ng/ml) was added to the lower chamber only. Other test reagents were added as indicated to both the upper and lower chambers. After 4 hours of incubation at 37° C. in 5% CO2, transwell inserts were gently removed and the number of cells that migrated into the lower chamber were counted by withdrawing 500 μl of lower chamber medium, mixing it with 10 ml of buffer and counting the cells on a Coulter Counter (Beckman Coulter Z series). Where results are expressed as % of CXCL12-stimulated migration, this was calculated as follows: (cells migrated in presence of CXCL12 and test reagent—cells migrated in medium alone)/(cells migrated in presence of CXCL12-cells migrated in medium alone)×100. Experimental points for all chemotaxis assays were performed in triplicate.
(§4) Splenocytes isolated from mice were assayed for migration in response to CXCL12 (250 ng/ml), either directly (unstimulated) or following 48 hr of incubation with 3 μg/ml Con A (stimulated), as described in Methods. To test for effects of dibutyryl cAMP, cells were pretreated with dibutyryl cAMP (500 μM) for 45-60 min prior to beginning the chemotaxis assay, and the assays were conducted with dibutyryl cAMP (db-cAMP) present (500 μM) in both the upper and lower chambers of the transwell plates. Data plotted are derived from a single experiment performed in triplicate. *p<0.001; **p<0.02.

The subject of series [3] is unstimulated mouse splenocytes. As to the kind of experiment: transwell chemotaxis assay in response to CXCL12, unstimulated splenocytes. Format: cell-based. Particulars: Mus musculus, Splenocyte, 4 h; read-out: inhibition of CXCL12-induced migration. The protocol: as §1, §2, §3, §4
Series [4] deals with Y748F mutant of PDE8A catalytic domain (Homo sapiens, UniProt O60658, Y748F). The note with it: cited from earlier work.
The subject of another series is PDE8. The note with it: read-out: Potency (IC50) PDE8; cited from earlier work.
A further series has as its system bEnd.3 cells. Kind of series: intracellular cAMP ELISA in bEnd.3 cells. Format: cell-based, mouse. Particulars: DP 100 μM, IBMX 300 μM; for cAMP levels in bEnd.3 cells: 45 minutes. The protocol:
Intracellular cAMP ELISAs. Activated bEnd.3 cells were treated as described above for 20, 45, or 90 minutes. cAMP levels were determined with a Correlate cAMP ELISA kit (Assay Designs, Ann Arbor, Mich.) using an ELISA reader (Bio-Rad, Hercules, Calif.) at 405 nm.
In FIG. 23B, IBMX (300 μM), DP (100 μM), or vehicle (0.1% DMSO) were added to the bEnd.3 cells for the final 20, 45, and 90 minutes of TNF-α exposure and the cellular cAMP content analyzed by ELISA. The values are given as the mean±SEM of an experiment run in duplicate with the results representative of 2 independent experiments (*p<0.05, **p<0.001; one way ANOVA followed by Bonferroni t-test for comparisons between vehicle and DP or IBMX and an unpaired t-test for comparisons between DP and IBMX).

A further series addresses PDE8A1 catalytic domain (Homo sapiens, UniProt O60658). The note with it: wild type; cited from earlier work.
Series [5] relates to peripheral blood mononuclear cells. The note with it: cited from earlier work.
In series [6] the test system is CD4+CD25− T cells. Kind of series: cAMP levels in CD4+CD25− T cells. Format: cell-based, mouse. The note with it: 20 minutes of treatment; resolved by 90 minutes.
Setting [7] is: 64 hours, DP 100 μM, IBMX 300 μM.

These results are taken from US20090239884A1, “Methods of Treating Inflammation” (priority 2006, published 2009).

SMILES strings stand for the structures. “Also recorded” adds a separate entry of the source.

PDE8A1 catalytic domain, sequence (O60658 480-820 limits assumed): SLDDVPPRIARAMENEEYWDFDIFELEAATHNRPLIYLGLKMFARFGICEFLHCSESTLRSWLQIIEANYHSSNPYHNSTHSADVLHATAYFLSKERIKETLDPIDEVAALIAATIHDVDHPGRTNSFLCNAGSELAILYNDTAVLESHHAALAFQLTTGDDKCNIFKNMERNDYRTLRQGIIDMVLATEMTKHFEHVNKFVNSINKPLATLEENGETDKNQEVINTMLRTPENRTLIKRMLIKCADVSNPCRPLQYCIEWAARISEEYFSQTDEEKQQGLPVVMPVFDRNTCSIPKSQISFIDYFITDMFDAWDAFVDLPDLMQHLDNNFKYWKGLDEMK
Y748F mutant of PDE8A catalytic domain, sequence (O60658 480-820 Y748F limits assumed): as the sequence (O60658 480-820 limits assumed) above, with Y269F counted along it

For the compound `OCCN(CCO)c1nc(N2CCCCC2)c2nc(N(CCO)CCO)nc(N3CCCCC3)c2n1` [Dipyridamole, 2,2′,2″,2′″-(4,8-di(piperidin-1-yl)pyrimido[5,4-d]pyrimidine-2,6-diyl)bis(azanetriyl)tetraethanol], in the series on CD4+CD25− T cells [1] (setting [7]), the “T cell proliferation ([3H]thymidine incorporation)” value is “potently suppressed”. Moreover, the “inhibition of proliferation, DP compared with IBMX” value in the series on CD4+CD25− T cells [1] (64 hours, DP 100 μM, IBMX 300 μM, listed as DP) was “more potently than IBMX; also recorded: greater”. The “effect of Crem gene deletion (CREM/ICER−/− T cells) on DP mediated suppression of proliferation” value with CD4+CD25− T cells [1] (DP 100 μM) was “did not affect”. In the series on CD4+CD25− T cells [1] (trypan blue at 64 hours, DP treatment), the “viability of T cells” value is reported as “not affected”. For the same compound, the inhibition at 100 µM in series [2] worked out at 54%; in series [3] it was 55%. For the same compound, the IC50 is roughly 4.1 µM in series [4], 4 to 9 µM in the series with PDE8 and roughly 6 µM on PDE8A1 catalytic domain. The “cAMP levels in bEnd.3 cells” value with bEnd.3 cells is reported as “significantly increased”. The “increase of cAMP levels in bEnd.3 cells” value in the series on bEnd.3 cells (within 20 minutes) is “over 2 fold”. For the same compound, the “lipopolysaccharide-stimulated release of TNF-α” value in [5] is on record as “inhibit”. Besides, the “cAMP in CD4+CD25− T cells” value in the series with CD4+CD25− T cells [6] is on record as “increase”.
Turning to `CC(C)Cn1c(=O)n(C)c(=O)c2[nH]cnc21` [IBMX, 3-isobutyl-1-methylxanthine], the “T cell proliferation ([3H]thymidine incorporation)” value in the series on CD4+CD25− T cells [1] (setting [7]) is listed as “potently suppressed”. The inhibition at 300 µM in series [2] was determined as 21%; in series [3] it was 57%. For the same compound, in [4], the “sensitivity of Tyr748-to-phenylalanine mutant to inhibition” value was “restores sensitivity”. In addition, the “cAMP levels in bEnd.3 cells” value in the series with bEnd.3 cells is listed as “significantly increased”. Besides, the “sensitivity of PDE8A1 catalytic domain to inhibition” value at PDE8A1 catalytic domain is on record as “insensitive”. In addition, the “cAMP in CD4+CD25− T cells” value in the series with CD4+CD25− T cells [6] is on record as “increase”.

The term IC50 denotes the concentration that inhibits the measured activity by half.
